Results on 2 molecules are retold here after patent publication US20080063670A1, “Nitroimidazole composition and method” (priority 2006, published 2008).

The conditions of data set [1]: in water at neutral pH; cited from earlier work.
Data set [2] is described as follows: Solubilization of nitroimidazoles in water with and without acids: crystals forced at about 4° C., re-dissolution observed at about 20° C. over about 14 days. The class given is physicochemical. The arrangement: key to crystals present: − means no crystals present; + means crystal are present. The following applies: for crystals present: water, about 20° C., 14 days. The protocol:
Heat was applied, if necessary, to dissolve the nitroimidazole. No organic co-solvents, water-soluble vitamins, or cyclodextrins were present in the solutions. The amount of acid was selected to be about equimolar with the amount of nitroimidazole added. After the nitroimidazole was dissolved, each solution was cooled to about 4° C. to force crystallization of some of the nitroimidazole. If crystals were not observed upon cooling, seed crystals of nitroimidazole were added and the solution were again maintained at about 4° C. […] The absence of crystals after 14 days indicates effective dissolution of the nitroimidazole.

As for `Cc1ncc([N+](=O)[O-])n1CCO` [Metronidazole, 1-(2-hydroxyethyl)-2-methyl-5-nitroimidazole], the solubility in water entry in data set [1] is “less than 1 percent by weight”. Moreover, the crystals present entry in data set [2] (Metronidazole Concentration 0.8%, Acid: Acetic (about equimolar)) is “−”; in data set [2] (Metronidazole Concentration 0.8%, Acid: Hydrochloric (about equimolar)) it was “−”; in data set [2] (Metronidazole Concentration 0.8%, Acid: None), “−”; in data set [2] (Metronidazole Concentration 0.8%, Acid: Tartaric (about equimolar)), “−”; in data set [2] (Metronidazole Concentration 1.0%, Acid: Acetic (about equimolar)) it was “−”; in data set [2] (Metronidazole Concentration 1.0%, Acid: Citric (about equimolar)), “−”. Further, the crystals present entry is recorded as “−” in data set [2] (Metronidazole Concentration 1.0%, Acid: Hydrochloric (about equimolar)); “+” in data set [2] (Metronidazole Concentration 1.0%, Acid: None); “−” in data set [2] (Metronidazole Concentration 1.0%, Acid: Tartaric (about equimolar)); “+” in data set [2] (Metronidazole Concentration 1.2%, Acid: Acetic (about equimolar)); “+” in data set [2] (Metronidazole Concentration 1.2%, Acid: Hydrochloric (about equimolar)); “−” in data set [2] (Metronidazole Concentration 1.2%, Acid: Tartaric (about equimolar)). Also, the crystals present entry was “−” in data set [2] (Metronidazole Concentration […], Acid: Citric (about equimolar)) and “+” in data set [2] (Metronidazole Concentration […], Acid: None). In addition, the “concentration of solutions free from crystals” value in data set [2] (at 20° C., utilizing organic acids (e.g., acetic acid, citric acid, tartaric acid, and malic acid)) is “at least 1 percent by weight”.
`CCS(=O)(=O)CCn1c([N+](=O)[O-])cnc1C` [Tinidazole, 1-[2-(ethylsulfonyl)ethyl]-2-methyl-5-nitroimidazole]: in data set [1], the solubility in water result is listed as “about 0.45 percent by weight”. Further, the crystals present entry in data set [2] (Tinidazole Concentration 0.45%, Acid: Acetic (about equimolar)) was “−”; in data set [2] (Tinidazole Concentration 0.45%, Acid: Citric (about equimolar)) it was “−”; in data set [2] (Tinidazole Concentration 0.45%, Acid: Hydrochloric (about equimolar)), “−”; in data set [2] (Tinidazole Concentration 0.45%, Acid: None), “−”; in data set [2] (Tinidazole Concentration 0.45%, Acid: Tartaric (about equimolar)), “−”; in data set [2] (Tinidazole Concentration 0.50%, Acid: Acetic (about equimolar)), “−”. Also, the crystals present result in data set [2] (Tinidazole Concentration 0.50%, Acid: Citric (about equimolar)) was “−”; in data set [2] (Tinidazole Concentration 0.50%, Acid: Hydrochloric (about equimolar)), “−”; in data set [2] (Tinidazole Concentration 0.50%, Acid: None), “+”; in data set [2] (Tinidazole Concentration 0.50%, Acid: Tartaric (about equimolar)), “−”; in data set [2] (Tinidazole Concentration 0.55%, Acid: Acetic (about equimolar)), “+”; in data set [2] (Tinidazole Concentration 0.55%, Acid: Citric (about equimolar)), “−”. The crystals present entry in data set [2] (Tinidazole Concentration 0.55%, Acid: Hydrochloric (about equimolar)) is recorded as “−”; in data set [2] (Tinidazole Concentration 0.55%, Acid: None), “+”; in data set [2] (Tinidazole Concentration 0.55%, Acid: Tartaric (about equimolar)), “−”; in data set [2] (Tinidazole Concentration 0.60%, Acid: Acetic (about equimolar)), “+”; in data set [2] (Tinidazole Concentration 0.60%, Acid: Citric (about equimolar)), “+”; in data set [2] (Tinidazole Concentration 0.60%, Acid: Hydrochloric (about equimolar)), “+”. The crystals present result in data set [2] (Tinidazole Concentration 0.60%, Acid: None) is “+”; in data set [2] (Tinidazole Concentration 0.60%, Acid: Tartaric (about equimolar)), “+”. The “concentration obtained (as high as), free from crystals” value in data set [2] (at 20° C., utilizing citric acid and using tartaric acid) was “about 0.55 percent by weight”.
